# Experimental data from US8796289B2 (AbbVie Inc., priority 2011, dated 2014).
# Molecular target: GST-tagged-Wee1 kinase (Homo sapiens, UniProt P30291)
# Assay: Wee1 time-resolved fluorescence equilibrium binding assay (displacement of Oregon Green-labeled ATP-competitive kinase probe)
# Details: not given
# Protocol: Wee1 kinase was assayed using a time-resolved fluorescence equilibrium binding assay monitoring displacement of a rapidly reversible Oregon Green-labeled ATP-competitive kinase probe (N-(2-(2-(2-(4-(4-(5-chloro-4-(2-(1-hydroxycyclobutyl)thiazol-5-yl)-1H-pyrrolo[2,3-b]pyridin-2-yl)phenyl)piperazin-1-yl)ethoxy)ethoxy)ethyl)-2′,7′-difluoro-3′,6′-dihydroxy-3-oxo-3H-spiro[isobenzofuran-1,9′-xanthene]-5-carboxamide) by competitive Wee1 inhibitors.
# GST-tagged-Wee1 kinase, sequence (P30291 whole entry): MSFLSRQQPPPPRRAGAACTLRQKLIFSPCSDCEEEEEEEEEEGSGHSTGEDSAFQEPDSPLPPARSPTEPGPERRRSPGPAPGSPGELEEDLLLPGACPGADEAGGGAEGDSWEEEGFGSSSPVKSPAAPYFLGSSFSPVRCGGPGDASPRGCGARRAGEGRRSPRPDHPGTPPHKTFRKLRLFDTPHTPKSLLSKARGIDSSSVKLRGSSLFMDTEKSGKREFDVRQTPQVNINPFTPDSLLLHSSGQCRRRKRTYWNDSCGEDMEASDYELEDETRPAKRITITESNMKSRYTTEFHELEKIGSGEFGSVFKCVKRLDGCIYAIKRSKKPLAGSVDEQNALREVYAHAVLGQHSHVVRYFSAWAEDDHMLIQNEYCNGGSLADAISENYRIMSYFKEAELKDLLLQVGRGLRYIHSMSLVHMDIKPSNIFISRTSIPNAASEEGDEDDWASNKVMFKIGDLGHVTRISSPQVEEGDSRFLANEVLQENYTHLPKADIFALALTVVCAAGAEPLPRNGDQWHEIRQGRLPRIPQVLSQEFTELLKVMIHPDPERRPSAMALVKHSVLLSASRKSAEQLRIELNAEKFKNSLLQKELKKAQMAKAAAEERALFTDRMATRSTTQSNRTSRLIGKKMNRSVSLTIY
row,Compound,Ki
1,"O=C1CCCN1c1ccc(-c2nn(-c3c(Cl)cccc3Cl)c(=O)c3cnc(Nc4ccc5c(c4)CNCC5)nc23)cc1 [Example 247, 6-(2,6-dichlorophenyl)-8-[4-(2-oxopyrrolidin-1-yl)phenyl]-2-(1,2,3,4-tetrahydroisoquinolin-7-ylamino)pyrimido[4,5-d]pyridazin-5(6H)-one]",0.2 nM
2,"CN1CCN(c2ccc(Nc3ncc4c(=O)n(-c5c(F)cccc5Cl)nc(-c5ccccn5)c4n3)cc2)CC1 [Example 309, 6-(2-chloro-6-fluorophenyl)-2-{[4-(4-methylpiperazin-1-yl)phenyl]amino}-8-(pyridin-2-yl)pyrimido[4,5-d]pyridazin-5(6H)-one]",680 nM
3,"Cc1nn(-c2ccccc2Cl)c(=O)c2cnc(Nc3ccc4c(c3)CCNC4)nc12 [Example 481, 6-(2-chlorophenyl)-8-methyl-2-(1,2,3,4-tetrahydroisoquinolin-6-ylamino)pyrimido[4,5-d]pyridazin-5(6H)-one]",0.73 nM
4,"CN1CCN(c2ccc(Nc3ncc4c(=O)[nH]nc(-c5ccccc5)c4n3)cc2)CC1 [Example 4, 2-{[4-(4-methylpiperazin-1-yl)phenyl]amino}-8-phenylpyrimido[4,5-d]pyridazin-5(6H)-one]",25 nM
5,"CC(O)Cn1nc(-c2ccccn2)c2nc(Nc3ccc4c(c3)CNCC4(C)C)ncc2c1=O (centres unmarked) [Example 295, 2-[(4,4-dimethyl-1,2,3,4-tetrahydroisoquinolin-7-yl)amino]-6-(2-hydroxypropyl)-8-(pyridin-2-yl)pyrimido[4,5-d]pyridazin-5(6H)-one]",501 nM
6,"CN1CCN(c2ccc(Nc3ncc4c(=O)n(-c5c(F)cccc5Cl)nc(-c5ccncn5)c4n3)cc2)CC1 [Example 298, 6-(2-chloro-6-fluorophenyl)-2-{[4-(4-methylpiperazin-1-yl)phenyl]amino}-8-(pyrimidin-4-yl)pyrimido[4,5-d]pyridazin-5(6H)-one]",1.8 nM
7,"CCc1nn(-c2c(Cl)cccc2Cl)c(=O)c2cnc(Nc3ccc4c(c3)CNCC4)nc12 [Example 403, 6-(2,6-dichlorophenyl)-8-ethyl-2-(1,2,3,4-tetrahydroisoquinolin-7-ylamino)pyrimido[4,5-d]pyridazin-5(6H)-one]",0.21 nM
8,"CN1CCN(c2ccc(Nc3ncc4c(=O)n(-c5ccccc5Cl)nc(-c5cccc(N6CCCC6)n5)c4n3)cc2)CC1 [Example 181, 6-(2-chlorophenyl)-2-{[4-(4-methylpiperazin-1-yl)phenyl]amino}-8-[6-(pyrrolidin-1-yl)pyridin-2-yl]pyrimido[4,5-d]pyridazin-5(6H)-one]",6 nM
9,"Cc1ccccc1-n1nc(-c2cccs2)c2nc(Nc3ccc(CN(C)C)cc3)ncc2c1=O [Example 208, 2-({4-[(dimethylamino)methyl]phenyl}amino)-6-(2-methylphenyl)-8-(thiophen-2-yl)pyrimido[4,5-d]pyridazin-5(6H)-one]",2 nM
10,"O=C1CCCN1c1ccc(Nc2ncc3c(=O)n(-c4ccccc4Cl)nc(-c4cccs4)c3n2)cc1 [Example 121, 6-(2-chlorophenyl)-2-{[4-(2-oxopyrrolidin-1-yl)phenyl]amino}-8-(2-thienyl)pyrimido[4,5-d]pyridazin-5(6H)-one]",3 nM
11,"Cc1nn(-c2c(Cl)cccc2Cl)c(=O)c2cnc(Nc3ccc4c(c3)CN(C)CC4(C)C)nc12 [Example 364, 6-(2,6-dichlorophenyl)-8-methyl-2-[(2,4,4-trimethyl-1,2,3,4-tetrahydroisoquinolin-7-yl)amino]pyrimido[4,5-d]pyridazin-5(6H)-one]",0.61 nM
12,"CC(C)n1cc(-c2nn(-c3c(F)cccc3Cl)c(=O)c3cnc(Nc4ccc5c(c4)CNCC54CC4)nc23)cn1 [Example 335, 6-(2-chloro-6-fluorophenyl)-2-(2′,3′-dihydro-1′H-spiro[cyclopropane-1,4′-isoquinolin]-7′-ylamino)-8-[1-(propan-2-yl)-1H-pyrazol-4-yl]pyrimido[4,5-d]pyridazin-5(6H)-one]",0.21 nM
13,"O=c1c2cnc(Nc3ccc(N4CCNCC4)cc3)nc2c(-c2ccccn2)nn1CCO [Example 267, 6-(2-hydroxyethyl)-2-{[4-(piperazin-1-yl)phenyl]amino}-8-(pyridin-2-yl)pyrimido[4,5-d]pyridazin-5(6H)-one]",240 nM
14,"O=c1c2cnc(Nc3ccc(N4CCN(C5COC5)CC4)cc3)nc2c(-c2ccncc2)nn1-c1c(Cl)cccc1Cl [Example 321, 6-(2,6-dichlorophenyl)-2-({4-[4-(oxetan-3-yl)piperazin-1-yl]phenyl}amino)-8-(pyridin-4-yl)pyrimido[4,5-d]pyridazin-5(6H)-one]",0.8 nM
15,"CS(=O)(=O)N1CCN(c2ccc(Nc3ncc4c(=O)n(-c5c(Cl)cccc5Cl)nc(-c5ccccn5)c4n3)cc2)CC1 [Example 376, 6-(2,6-dichlorophenyl)-2-({4-[4-(methylsulfonyl)piperazin-1-yl]phenyl}amino)-8-(pyridin-2-yl)pyrimido[4,5-d]pyridazin-5(6H)-one]",1.3 nM
16,"CC1(C)CNCc2cc(Nc3ncc4c(=O)n(-c5ccncc5)nc(-c5ccccn5)c4n3)ccc21 [Example 238, 2-[(4,4-dimethyl-1,2,3,4-tetrahydroisoquinolin-7-yl)amino]-8-(pyridin-2-yl)-6-(pyridin-4-yl)pyrimido[4,5-d]pyridazin-5(6H)-one]",34 nM
17,"CN1CCN(c2ccc(Nc3ncc4c(=O)n(-c5c(Cl)cccc5Cl)nc(-c5cc[nH]n5)c4n3)cc2)CC1 [Example 231, 6-(2,6-dichlorophenyl)-2-{[4-(4-methylpiperazin-1-yl)phenyl]amino}-8-(1H-pyrazol-3-yl)pyrimido[4,5-d]pyridazin-5(6H)-one]",0.1 nM
18,"CN1CCN(c2ccc(Nc3ncc4c(=O)n(-c5ccccc5)nc(CCc5ccccc5)c4n3)cc2)CC1 [Example 9, 2-{[4-(4-methylpiperazin-1-yl)phenyl]amino}-6-phenyl-8-(2-phenylethyl)pyrimido[4,5-d]pyridazin-5(6H)-one]",61 nM
19,"C=Cn1cc(-c2nn(-c3c(Cl)cccc3Cl)c(=O)c3cnc(Nc4ccc(N5CCN(C)CC5)cc4)nc23)cn1 [Example 201, 6-(2,6-dichlorophenyl)-8-(1-ethenyl-1H-pyrazol-4-yl)-2-{[4-(4-methylpiperazin-1-yl)phenyl]amino}pyrimido[4,5-d]pyridazin-5(6H)-one]",0.2 nM
20,"C=CCn1nc(-c2ccco2)c2nc(Nc3ccc4c(c3)CN(C)CC43CC3)ncc2c1=O [Example 144, 6-allyl-8-(2-furyl)-2-[(2′-methyl-2′,3′-dihydro-1′H-spiro[cyclopropane-1,4′-isoquinolin]-7′-yl)amino]pyrimido[4,5-d]pyridazin-5(6H)-one]",2 nM
21,"Cc1ccccc1-n1nc(-c2ccccc2)c2nc(Nc3ccc4c(c3)CN(C)CC4)ncc2c1=O [Example 171, 6-(2-methylphenyl)-2-[(2-methyl-1,2,3,4-tetrahydroisoquinolin-7-yl)amino]-8-phenylpyrimido[4,5-d]pyridazin-5(6H)-one]",0.6 nM
22,"CN1Cc2cc(Nc3ncc4c(=O)n(CCO)nc(-c5ccccn5)c4n3)ccc2C(C)(C)C1 [Example 242, 6-(2-hydroxyethyl)-8-(pyridin-2-yl)-2-[(2,4,4-trimethyl-1,2,3,4-tetrahydroisoquinolin-7-yl)amino]pyrimido[4,5-d]pyridazin-5(6H)-one]",50 nM

# Same assay, conditions: read-out: Wee-1 inhibition Ki
row,Compound,Ki
1,"6-(2,6-dichlorophenyl)-8-(3-furyl)-2-{[4-(4-methylpiperazin-1-yl)phenyl]amino}pyrimido[4,5-d]pyridazin-5(6H)-one [Example 95]",0.1 nM
